The results in this text go back to ChEMBL document CHEMBL1136285, “Discovery of a novel potent Na+/Ca2+ exchanger inhibitor: design, synthesis and structure-activity relationships of 3,4-dihydro-2(1H)-quinazolinone derivatives” (Bioorg Med Chem Lett, 2003).

Data set [1] is filed under the species Cavia porcellus. Description: Inhibitory activity against Na+/[Ca2+] exchanger after 30 min of K+ free incubation in isolated left atria from guinea pig.
The nature of data set [2]: pKa value was determined. Type of data set: physicochemical.
The species named for data set [3] is Cavia porcellus. Description: Inhibitory activity (1 uM) against Na+/[Ca2+] exchanger after 30 min of K+ free incubation in isolated left atria from guinea pig. Type of data set: functional.

The molecule `CN(C)CCCN1C(=O)Nc2ccccc2C1c1ccccc1` (stereo not drawn) had a concentration for an effect of 30% (IC30) in the data set listed under Cavia porcellus [1] of 350 nM.

Turning to `CCN(CC)CCCCN1C(=O)Nc2ccccc2C1c1ccccc1` (stereo not drawn), the 30% effect level in the data set filed under Cavia porcellus [1] (IC30) was put at 1900 nM.

The molecule `CN1CCC(N2C(=O)Nc3ccccc3C2c2ccccc2)CC1` (stereo not drawn) displayed a concentration for an effect of 30% (IC30) in the data set listed under Cavia porcellus [1] of 87 nM.

`CN(C)CCCN1C(=O)N(C)c2ccc(Cl)cc2C1c1ccccc1` (stereo not drawn) showed an IC30 in the data set filed under Cavia porcellus [1] of over 10000 nM.

Regarding `CN(C)CCCN1C(=O)Nc2ccccc2C1c1ccccn1` (stereo not drawn), the IC30 in the data set filed under Cavia porcellus [1] was 510 nM.

Consider `CN(C)CCCN1C(=O)Nc2ccc(Cl)cc2C1c1ccco1` (stereo not drawn), for which it took 690 nM to reach the 30% level in the data set filed under Cavia porcellus [1] (IC30).

On to `CCNCCN1C(=O)Nc2ccccc2C1c1ccccc1` (stereo not drawn), for which, in the data set filed under Cavia porcellus [1], the IC30 was 580 nM.

In the data set listed under Cavia porcellus [1], `CCN1CCC(N2C(=O)Nc3ccccc3C2c2ccccc2)CC1` (stereo not drawn) had an IC30 of 53 nM.

Molecule `O=C1Nc2ccccc2C(c2ccccc2)N1C1CCN(CCc2ccccc2)CC1` (stereo not drawn) had a 30% effect concentration (IC30) in the data set filed under Cavia porcellus [1] of 3600 nM.

In turn, `CN(C)CCCN1C(S)=Nc2ccccc2C1c1ccccc1` (stereo not drawn) had an IC30 in the data set listed under Cavia porcellus [1] of 3800 nM.

The molecule `CN(C)CCCN1C(=O)Nc2ccccc2C1C1CCCCC1` (stereo not drawn) showed a concentration for an effect of 30% (IC30) in the data set listed under Cavia porcellus [1] of 570 nM.

`O=C1Nc2ccccc2C(c2ccccc2)N1C1CCN(Cc2ccccc2)CC1` (stereo not drawn) had a 30% effect concentration (IC30) in the data set listed under Cavia porcellus [1] of 17 nM.

`CN(C)CCCN1C(=O)Nc2ccccc2C1Cc1ccccc1` (stereo not drawn): the IC30 in the data set listed under Cavia porcellus [1] is over 10000 nM.

Regarding `O=C1Nc2ccccc2C(c2ccccc2)N1C1CCN(CC2CCCCC2)CC1` (stereo not drawn), in the data set listed under Cavia porcellus [1], the 30% effect level (IC30) was put at 4000 nM.

Consider `CN(C)CCCN1C(=O)Nc2ccccc2C1c1cccs1` (stereo not drawn), for which the 30% effect concentration (IC30) in the data set listed under Cavia porcellus [1] stood at 720 nM.

Regarding `CCN(CC)CCCN1C(=O)Nc2ccccc2C1c1ccccc1` (stereo not drawn), the IC30 in the data set filed under Cavia porcellus [1] was 40 nM.

For `CCN(CC)CCN1C(=O)Nc2ccccc2C1c1ccccc1` (stereo not drawn), the pKa in data set [2] is 10.2. In the data set listed under Cavia porcellus [1], the concentration for an effect of 30% (IC30) is 69 nM.

In the data set listed under Cavia porcellus [1], `CCOCCN1C(=O)Nc2ccccc2C1c1ccccc1` (stereo not drawn) gave a concentration for an effect of 30% (IC30) of over 10000 nM.

Consider `CC1c2ccccc2NC(=O)N1CCCN(C)C` (stereo not drawn), for which the IC30 in the data set filed under Cavia porcellus [1] was 5300 nM.

As to `CCOc1ccc(Oc2ccc(OCc3cc(F)ccc3F)cc2)c(N)c1`, the Inhibition in the data set filed under Cavia porcellus [3] was over 80%.

`CN(C)CCCN1C(=O)Nc2ccc(Cl)cc2C1c1ccccc1` (stereo not drawn): in the data set filed under Cavia porcellus [1], the concentration for an effect of 30% (IC30) came to 460 nM.

In the data set listed under Cavia porcellus [1], `NCCN1C(=O)Nc2ccccc2C1c1ccccc1` (stereo not drawn) yielded a 30% effect concentration (IC30) of over 10000 nM.

The molecule `O=C1Nc2ccccc2C(c2ccccc2)N1C1CCNCC1` (stereo not drawn) had an IC30 in the data set filed under Cavia porcellus [1] of 1100 nM.

In data set [2], `CCN(CC)C(=O)CN1C(=O)Nc2ccccc2C1c1ccccc1` (stereo not drawn) returned a pKa of -0.58. Further, the concentration for an effect of 30% (IC30) in the data set listed under Cavia porcellus [1] was over 10000 nM.

In turn, `CC(C)CCCN1C(=O)Nc2ccccc2C1c1ccccc1` (stereo not drawn) returned a 30% effect concentration (IC30) in the data set filed under Cavia porcellus [1] of over 10000 nM.

For `CCCN1CCC(N2C(=O)Nc3ccccc3C2c2ccccc2)CC1` (stereo not drawn), the IC30 in the data set filed under Cavia porcellus [1] worked out at 93 nM.

Broadly, the IC30 is the point of the concentration-response curve where the effect stands at 30%. Read a low IC30 as an effect from little substance. What is called pKa is the pH at which an ionisable group is half protonated. The low end stands for a stronger acid or weaker base, the high end for a weaker acid or stronger base. One may read the Inhibition as how much of the control response was suppressed. Higher therefore signals a response far below the control.
